Measurements as given in paper PMC9864514, “Evaluation of the Local Anesthetic Activity, Acute Toxicity, and Structure–Toxicity Relationship in Series of Synthesized 1-Aryltetrahydroisoquinoline Alkaloid Derivatives In Vivo and In Silico” (Molecules, 2023).
“Also recorded” adds a separate entry of the source.

Columns and labels:
Assay type in all cases: in vivo
[1] = Acute toxicity and resorptive action in white mice, intragastric administration; conditions: mouse, in vivo, po, intragastric administration, N = 10, Litchfield–Wilcoxon
Protocol: (§1) The acute toxicity and resorptive action were determined in white mice weighing 20–24 g by gradual oral administration at doses of 1–5000 mg/kg.
(§2) The animals were kept under standard nursery conditions with a natural 12-h light-dark cycle, at an air temperature of 20 ± 2 °C. The animals had unlimited access to food and water. The experiments were performed in accordance with the International Convention for the Protection of Vertebrate Animals used for Experimental and Scientific Purposes (Strasbourg, 1986). Each substance was tested on 10 mice and LD50 was determined graphically by the well-known Litchfield–Wilcoxon method.

[2] = tested on: rabbit eye cornea; test: Local anesthetic activity, rabbit eye cornea terminal anesthesia test; conditions: for Onset of Anesthesia / Total Duration of Anesthesia / Duration of Complete Anesthesia / Duration of complete anesthesia, times longer than lidocaine: rabbit corneal model; for Onset of Anesthesia / Total Duration of Anesthesia / Duration of Complete Anesthesia: 1% aqueous solution; for Duration of Complete Anesthesia: percentage of the anesthetic activity of lidocaine (=100%); for Duration of complete anesthesia, times longer than lidocaine: 1% concentration; for Local irritant effects on rabbit eyes: concentrations studied
Protocol: Local anesthetic activity was evaluated using the rabbit eye cornea terminal anesthesia test on 2.0–2.5 kg male chinchilla rabbits after introduction of total 0.4 mL (0.2 mL twice with an interval of 30 s) of 1.0 % solutions of the studied substances. Lidocaine was used as an etalon drug. Each substance was tested on three rabbits.

[3] = tested on: white mice; test: Acute toxicity and resorptive action in white mice, intragastric administration; conditions: for Decrease of acute toxicity compared with 3a: intragastric, relative to parent compound 3a
Protocol: as §1, §2

SMILES	LD50 [1]	Onset of Anesthesia [2]	Total Duration of Anesthesia [2]	Duration of Complete Anesthesia [2]	Decrease of acute toxicity compared with 3a [3]	Duration of complete anesthesia, times longer than lidocaine [2]	LD50 ([3]; intragastric administration, N = 10, Litchfield–Wilcoxon)	Local irritant effects on rabbit eyes [2]
COc1cc2c(cc1OC)C(c1ccccc1)NCC2 (centres unmarked) [Compound 3a, 1-(Phenyl)-6,7-dimethoxy-1,2,3,4-tetrahydroisoquinoline]	280 mg/kg	3.0 ± 1.1 min	53.0 ± 4.6 min	+50%				
COc1cc2c(cc1OC)C(c1ccccc1O)NCC2 (centres unmarked) [Compound 3b, 1-(2′-Hydroxyphenyl)-6,7-dimethoxy-1,2,3,4-tetrahydroisoquinoline]	375 mg/kg	1.0 ± 0.4 min	44.0 ± 1.5 min	+50%	did not result in a significant decrease of toxicity			
COc1ccc(C2NCCc3cc(OC)c(OC)cc32)cc1O (centres unmarked) [Compound 3c, 1-(3′-Hydroxy-4′-methoxyphenyl)-6,7-dimethoxy-1,2,3,4-tetrahydroisoquinoline]	980 mg/kg	3.0 ± 0.8 min	70.0 ± 4.5 min	+40%	3.5 fold			
COc1ccc(C2NCCc3cc(OC)c(OC)cc32)cc1OC (centres unmarked) [Compound 3d, 1-(3′,4′-Dimethoxyphenyl)-6,7-dimethoxy-1,2,3,4-tetrahydroisoquinoline]	670 mg/kg	2.0 ± 0.7 min	70.0 ± 2.1 min	+60%	2.5–2.6 fold			
COc1cc2c(cc1OC)C(c1ccc(O)c(Br)c1)NCC2 (centres unmarked) [Compound 3e, 1-(3′-Bromo-4′-hydroxyphenyl)-6,7-dimethoxy-1,2,3,4-tetrahydroisoquinoline]	3850 mg/kg	5.0 ± 0.9 min	80.0 ± 3.2 min	+49%	13.75 fold			
COc1cc2c(cc1OC)C(c1cc(Br)ccc1O)NCC2 (centres unmarked) [Compound 3f, 1-(5′-Bromo-2′-hydroxyphenyl)-6,7-dimethoxy-1,2,3,4-tetrahydroisoquinoline]	305 mg/kg	1.0 ± 0.5 min	64.0 ± 3.8 min		did not result in a significant decrease of toxicity	1.6 times		
COc1cc(Br)c(C2NCCc3cc(OC)c(OC)cc32)cc1OC (centres unmarked) [Compound 3g, 1-(2′-Bromo-4′,5′-dimethoxyphenyl)-6,7-dimethoxy-1,2,3,4-tetrahydroisoquinoline]	290 mg/kg	2.0 ± 1.0 min	44.0 ± 3.5 min	+90%	no significant change in acute toxicity			
COc1cc(Br)c(C2NCCc3cc(OC)c(OC)cc32)cc1O (centres unmarked) [Compound 3h, 1-(2′-Bromo-5′-hydroxy-4′-methoxyphenyl)-6,7-dimethoxy-1,2,3,4-tetrahydroisoquinoline]	550 mg/kg	1.0 ± 0.4 min	40.0 ± 3.2 min	+170%	about 2 fold	1.7 times		
COc1cc2c(cc1OC)C(c1ccc3c(c1)OCO3)NCC2 (centres unmarked) [Compound 3i, 1-(3′,4′-Methylenedioxyphenyl)-6,7-dimethoxy-1,2,3,4-tetrahydroisoquinoline]	280 mg/kg	2.0 ± 0.4 min	57.0 ± 3.7 min	+80%	did not lead to a change in acute toxicity			
COc1cc2c(cc1OC)C(c1cc3c(cc1Br)OCO3)NCC2 (centres unmarked) [Compound 3j, 1-(2′-Bromo-4′,5′-methylenedioxyphenyl)-6,7-dimethoxy-1,2,3,4-tetrahydroisoquinoline]	730 mg/kg	2.0 ± 1.0 min	52.0 ± 4.0 min	+90%	2.5 fold			
COc1cc2c(cc1OC)C(c1cc3c(cc1Cl)OCO3)NCC2 (centres unmarked) [Compound 3k, 1-(4′,5′-Methylenedioxy-2′-chlorophenyl)-6,7-dimethoxy-1,2,3,4-tetrahydroisoquinoline]	520 mg/kg	2.0 ± 1.2 min	43.0 ± 4.5 min	+90%	1.86 fold			
COc1cc2c(cc1OC)C(c1cc(Br)c(O)c(OC)c1)NCC2 (centres unmarked) [Compound 3l, 1-(5′-Bromo-4′-hydroxy-3′-methoxyphenyl)-6,7-dimethoxy-1,2,3,4-tetrahydroisoquinoline]	1560 mg/kg	5.0 ± 1.2 min	89.0 ± 3.0 min	+140%	5.6 fold	1.4 times		
COc1cc2c(cc1OC)C(c1ccc([N+](=O)[O-])cc1)NCC2 (centres unmarked) [Compound 3m, 1-(4′-Nitrophenyl)-6,7-dimethoxy-1,2,3,4-tetrahydroisoquinoline]	1950 mg/kg	3.0 ± 0.4 min	48.0 ± 2.8 min	+80%				
COc1cc2c(cc1OC)C(c1cccc([N+](=O)[O-])c1)NCC2 (centres unmarked) [Compound 3n, 1-(3′-Nitrophenyl)-6,7-dimethoxy-1,2,3,4-tetrahydroisoquinoline]	460 ± 598 mg/kg	3.0 ± 1.0 min	37.0 ± 3.2 min	+260%		2.6 times	525 (460.5 ± 598.5) mg/kg	eye irritation and redness; also recorded: reversible irritation and redness of the eyes
COc1cc2c(cc1OC)C(c1cccc(Br)c1)NCC2 (centres unmarked) [Compound 3o, 1-(3′-Bromophenyl)-6,7-dimethoxy-1,2,3,4-tetrahydroisoquinoline]	710 mg/kg	2.0 ± 0.4 min	115.0 ± 3.8 min	+130%	2.5–2.6 fold			
COc1cc2c(cc1OC)C(c1ccccc1OC)NCC2 (centres unmarked) [Compound 3p, 1-(2′-Methoxyphenyl)-6,7-dimethoxy-1,2,3,4-tetrahydroisoquinoline]	300 mg/kg	3.0 ± 0.8 min	67.0 ± 3.6 min	+300%	did not result in a significant decrease of toxicity	3.0 times		
COc1cc2c(cc1OC)C(c1ccc(N(C)C)cc1)NCC2 (centres unmarked) [Compound 3q, 1-(4′-Dimethylaminophenyl)-6,7-dimethoxy-1,2,3,4-tetrahydroisoquinoline]	1250 mg/kg	2.0 ± 0.6 min	45.0 ± 4.1 min	+220%	~4.5 fold	2.2 times		
COc1cc2c(cc1OC)C(c1ccc(Cl)cc1)NCC2 (centres unmarked) [Compound 3r, 1-(4′-Chlorophenyl)-6,7-dimethoxy-1,2,3,4-tetrahydroisoquinoline]	740 mg/kg	2.0 ± 0.6 min	35.0 ± 3.4 min	+150%	2.5–2.6 fold			eye irritation and redness; also recorded: reversible irritation and redness of the eyes
COc1cc2c(cc1OC)C(c1ccc(N)cc1)NCC2 (centres unmarked) [Compound 4a, 1-(4′-Aminophenyl)-6,7-dimethoxy-1,2,3,4-tetrahydroisoquinoline]	1050 mg/kg	2.0 ± 0.7 min	25.0 ± 4.0 min	+40%	3.75 fold			eye irritation and redness; also recorded: reversible irritation and redness of the eyes
COc1cc2c(cc1OC)C(c1cccc(N)c1)NCC2 (centres unmarked) [Compound 4b, 1-(3′-Aminophenyl)-6,7-dimethoxy-1,2,3,4-tetrahydroisoquinoline]	750 mg/kg	3.0 ± 0.7 min	44.0 ± 4.1 min	+0%				
CCN(CC)CC(=O)Nc1c(C)cccc1C [Lidocaine, reference compound]		5.0 ± 0.5 min	52.7 ± 4.9 min					
